# pEC50: −log10 of the molar value.
# Molecular target: T1, FH (富马酸脱氢酶) (Homo sapiens, UniProt P07954)
# T1 construct: endogenous protein in desalted HeLa cell lysate, native, no tag
# T1 sequence (P07954 45-510): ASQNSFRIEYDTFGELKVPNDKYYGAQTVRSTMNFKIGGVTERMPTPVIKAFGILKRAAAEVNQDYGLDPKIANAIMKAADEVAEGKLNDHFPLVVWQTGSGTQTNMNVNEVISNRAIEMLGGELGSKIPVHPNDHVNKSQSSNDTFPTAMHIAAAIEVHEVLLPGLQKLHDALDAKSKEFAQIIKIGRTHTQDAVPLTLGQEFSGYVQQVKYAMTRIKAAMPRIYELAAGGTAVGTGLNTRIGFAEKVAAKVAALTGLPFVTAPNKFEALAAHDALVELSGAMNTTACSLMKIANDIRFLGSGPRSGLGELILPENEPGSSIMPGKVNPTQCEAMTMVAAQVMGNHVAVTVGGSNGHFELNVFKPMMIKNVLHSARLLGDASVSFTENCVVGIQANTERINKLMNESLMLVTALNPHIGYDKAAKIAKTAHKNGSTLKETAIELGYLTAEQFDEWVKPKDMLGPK
# Assay: matrix thermal shift assay (mTSA), DIA proteomics, dose-response fit
# Format: biochemical
# Conditions: desalted HeLa lysate in PBS, endogenous metabolites removed, 50 min room temperature, then 52 ℃ 3 min; 0.004-2 mmol/L ligand; thermal stabilisation; only four ligand concentrations; read-out: 亲和力 (EC50)
structure (smiles),measurement,value
O=C(O)/C=C/C(=O)O [富马酸],pEC50,3.26

# — paper PMC11224940, “矩阵热转移技术鉴定有机酸类代谢物的结合蛋白质” (Chinese Journal of Chromatography, 2024)
